# Experimental data published in patent US7943296B2, “Methods of screening using a natriuretic peptide receptor” (Oregon Health & Science University, priority 2005, dated 2011).
# Key:
# NPRA [1] = test: [35S]ATPγS incorporation into NPRA (receptor phosphorylation) in CFs; format: cell-based, rat; details: ANP 5 minutes, KT5823 1 μM or expressed fragment
# Experimental: To identify receptor phosphorylation by PKG, ^[35S]ATPγS was employed as a substrate. [^35S] incorporation into NPRA was analyzed according to the method previously described (Joubert et al., Biochem. 40:11096-105, 2001). Briefly, the treated CFs were scraped into 100 μl ice-cold incubation buffer (25 mM HEPES, pH 7.4, 50 mM NaCl, 5 mM MgCl2, 0.2 μM okadaic acid, 1 mM Na3VO4, 10 mM NaH2PO4, 10 mM NaF, and protease inhibitors (complete mini-tablet, Roche) and lysed by repeated passage through a 22-gauge needle. Lysates were added to incubation buffer containing 1 μCi [^35S]ATPγS (specific activity >1000 Ci/mmol), final volume of 200 μl, incubated at 37° C. for 30 minutes. Proteins were analyzed by SDS-PAGE (7.5%) and subsequent autoradiography.
# PKG = biological target: T1, PKG (Homo sapiens, UniProt Q13976); details: earlier observation, Airhart et al. 2003; cited from earlier work
# T1 construct: endogenous in cells; host or cells: HEK293 stably over-expressing FLAG-NPRA (HEK-NPRA)
# T1 sequence (Q13976 1-671): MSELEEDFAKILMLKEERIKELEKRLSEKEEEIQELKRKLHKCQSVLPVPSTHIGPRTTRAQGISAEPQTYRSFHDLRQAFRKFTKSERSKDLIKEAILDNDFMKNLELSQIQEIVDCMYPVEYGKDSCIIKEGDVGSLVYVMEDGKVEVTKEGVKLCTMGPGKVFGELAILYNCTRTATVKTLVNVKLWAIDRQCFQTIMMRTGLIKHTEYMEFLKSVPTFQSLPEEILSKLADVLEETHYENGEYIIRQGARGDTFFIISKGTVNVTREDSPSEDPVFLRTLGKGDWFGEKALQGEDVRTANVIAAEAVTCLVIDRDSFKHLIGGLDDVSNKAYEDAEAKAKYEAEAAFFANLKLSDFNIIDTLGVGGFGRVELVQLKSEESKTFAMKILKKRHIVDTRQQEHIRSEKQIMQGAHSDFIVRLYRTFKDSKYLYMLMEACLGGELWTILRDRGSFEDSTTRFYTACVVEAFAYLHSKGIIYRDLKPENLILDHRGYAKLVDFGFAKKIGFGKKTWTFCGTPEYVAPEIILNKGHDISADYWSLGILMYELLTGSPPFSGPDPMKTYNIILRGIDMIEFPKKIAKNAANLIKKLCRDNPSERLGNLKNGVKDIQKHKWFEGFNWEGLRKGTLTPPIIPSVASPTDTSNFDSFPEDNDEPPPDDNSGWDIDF
# NPRA [2] = test: [35S]ATPγS NPRA phosphorylation in HEK293 / HEK-NPRA cells; format: cell-based; details: HEK293 that overexpress NPRA
# Experimental: To ensure that the 137-kD phosphorylation band observed in the CFs after ANP treatment was, in fact, NPRA, HEK293 or HEK-NPRA were treated with ANP with or without KT5823 as described above. The lysates were divided into two aliquots. One aliquot was incubated with [^35S] ATPγS and then separated by SDS-PAGE, blotted to Immobilon membranes, and visualized by autoradiography. The other aliquot was separated similarly and then probed with anti-NPRA antisera, stripped and re-probed with anti-α-tubulin to assure equal protein loading. Robust phosphorylation of a 137-kD protein occurred in the NPRA-expressing cells, but not in control cells (FIG. 6B). Since both KT5823 and sNRF^(806-1061) inhibit cytosolic-to-plasma membrane translocation of PKG, PKG-NPRA association appears to be required for PKG-induced NPRA phosphorylation.
compound,measurement,setting,value
COC(=O)[C@@]1(OC)C[C@H]2O[C@]1(C)n1c3ccccc3c3c4c(c5c6ccccc6n2c5c31)C(=O)N(C)C4 [KT5823],ANP-induced NPRA phosphorylation,NPRA [1],reduced ANP-induced NPRA phosphorylation to control levels
same,PKG translocation,PKG,inhibits PKG translocation
same,NP-dependent phosphorylation of NPRA,NPRA [2],inhibited
